Results taken from patent US8062995B2, “Dioxazine-substituted arylamides” (Bayer CropScience AG, priority 2005, dated 2011).

Tests used:
[1] = logP determination by HPLC (reversed-phase C18), EEC Directive 79/831 Annex V.A8; format: physicochemical; settings: HPLC reversed-phase C18, 43° C., acidic range pH 2.7
Method: The logP values given in the tables and Preparation Examples above are determined in accordance with EEC Directive 79/831 Annex V.A8 by HPLC (High Performance Liquid Chromatography) on a reversed-phase column (C 18). Temperature: 43° C. The determination by LC-MS in the acidic range is carried out at pH 2.7 using 0.1% aqueous formic acid and acetonitrile (contains 0.1% formic acid) as mobile phases; linear gradient from 10% acetonitrile to 95% acetonitrile. Calibration is carried out using unbranched alkan-2-ones (having 3 to 16 carbon atoms) with known logP values (determination of the logP values by the retention times using linear interpolation between two successive alkanones).

Myzus persicae = Myzus persicae test (ingestion of active compound preparation); format: in vivo; settings: for Kill rate after 6-7d in %: 30 ppm, ingestion
Method: (§1) Myzus persicae Test Solvents: 1% of N-methylpyrrolidone (NMP) • 1% of diacetone alcohol Dye: brilliant sulphoflavin for staining the water To produce a suitable preparation of active compound, the active compound is mixed with the stated amounts of solvents and the concentrate is diluted with stained water to the desired concentration. The Myzus persicae are provided with an active compound preparation of the desired concentration for ingestion. After the desired period of time, the activity in % is determined. 100% means that all aphids have been killed; 0% means that none of the aphids have been killed.

Heliothis virescens = Heliothis virescens test (eggs); format: in vivo; settings: for Kill rate after 6-7d in %: 300 ppm, eggs
Method: as §1, with “Heliothis virescens” for “Myzus persicae Test”, “eggs (Heliothis virescens)” for “Myzus persicae”, “treated” for “provided”, “concentration.” for “concentration for ingestion.”, “animals” for “aphids”

[2] = tested on: caterpillars of the army worm (Spodoptera frugiperda); experiment: Spodoptera frugiperda test (SPODFR spray treatment); format: in vivo; settings: for Kill rate after 7d in %: 100 g/ha, spray treatment
Method: Spodoptera frugiperda Test (SPODFR Spray Treatment) Solvents: 78 parts by weight of acetone • • 1.5 parts by weight of dimethylformamide Emulsifier: 0.5 part by weight of alkylaryl polyglycol ether To produce a suitable preparation of active compound, 1 part by weight of active compound is mixed with the stated amounts of solvents and emulsifier and the concentrate is diluted with emulsifier-containing water to the desired concentration. Discs of maize leaves (Zea mays) are sprayed with an active compound preparation of the desired concentration and after drying populated with caterpillars of the army worm (Spodoptera frugiperda). After the desired period of time, the activity in % is determined. 100% means that all of the caterpillars have been killed; 0% means that none of the caterpillars have been killed.

[3] = tested on: Diabrotica undecimpunctata; experiment: Diabrotica undecimpunctata (DIABUN) test (eggs); format: in vivo
Method: as §1, with “Diabrotica undecimpunctata (DIABUN)” for “Myzus persicae Test”, “eggs (Diabrotica undecimpunctata)” for “Myzus persicae”, “treated” for “provided”, “concentration.” for “concentration for ingestion.”, “animals” for “aphids”

[4] = tested on: larvae of the mustard beetle (Phaedon cochleariae); experiment: Phaedon test (sprayed Chinese cabbage discs); format: in vivo; settings: for Kill rate after 7d in %: 100 g/ha
Method: (§2) Phaedon Test Solvents: 78 parts by weight of acetone • • 1.5 parts by weight of dimethylformamide Emulsifier: 0.5 part by weight of alkylaryl polyglycol ether To produce a suitable preparation of active compound, 1 part by weight of active compound is mixed with the stated amounts of solvents and emulsifier and the concentrate is diluted with emulsifier-containing water to the desired concentration. Discs of Chinese cabbage (Brassica pekinensis) are sprayed with an active compound preparation of the desired concentration and, after drying, populated with larvae of the mustard beetle (Phaedon cochleariae). After the desired period of time, the activity in % is determined. 100% means that all beetle larvae have been killed; 0% means that none of the beetle larvae have been killed.

[5] = tested on: Spodoptera frugiperda larvae; experiment: Spodoptera frugiperda test (treatment by watering); format: in vivo; settings: for Kill rate after 14d in %: 20 ppm, treatment by watering
Method: Spodoptera frugiperda Test Solvent: 7 parts by weight of dimethylformamide Emulsifier: 2 parts by weight of alkylaryl polyglycol ether To produce a suitable preparation of active compound, 1 part by weight of active compound is mixed with the stated amounts of solvent and emulsifier and the concentrate is diluted with water to the desired concentration. Maize plants (Zea mays) are watered with an active compound preparation of the desired concentration and infected with Spodoptera frugiperda larvae. After the desired period of time, the kill in % is determined. 100% means that all larvae have been killed; 0% means that none of the larvae have been killed.

[6] = tested on: caterpillars of the cotton bollworm (Heliothis armigera); experiment: Heliothis armigera test (leaf dip); format: in vivo; settings: for Kill rate after 7d in %: 20 ppm
Method: (§3) Heliothis armigera Test Solvent: 7 parts by weight of dimethylformamide Emulsifier: 2 parts by weight of alkylaryl polyglycol ether To produce a suitable preparation of active compound, 1 part by weight of active compound is mixed with the stated amounts of solvent and emulsifier and the concentrate is diluted with emulsifier-containing water to the desired concentration. Soya bean leaves (Glycine max.) are treated by being dipped into the active compound preparation of the desired concentration and populated with caterpillars of the cotton bollworm (Heliothis armigera) while the leaves are still moist. After the desired period of time, the kill in % is determined. 100% means that all caterpillars have been killed; 0% means that none of the caterpillars have been killed.

[7] = tested on: green peach aphid (Myzus persicae); experiment: Myzus test (MYZUPE spray treatment); format: in vivo; settings: for Kill rate after 5d in %: 100 g/ha, spray treatment
Method: as §2, with “Myzus” for “Phaedon”, “Test (MYZUPE Spray Treatment)” for “Test”, “pekinensis), which are infested by all stages of the green peach aphid (Myzus persicae)” for “pekinensis)”, “concentration.” for “concentration and, after drying, populated with larvae of the mustard beetle (Phaedon cochleariae).”, “aphids” for “beetle larvae”

[8] = tested on: caterpillars of the army worm (Spodoptera exigua); experiment: Spodoptera exigua test (leaf dip); format: in vivo
Method: as §3, with “Spodoptera exigua” for “Heliothis armigera”, “Cabbage” for “Soya bean”, “(Brassica oleracea)” for “(Glycine max.)”, “army worm (Spodoptera exigua)” for “cotton bollworm (Heliothis armigera)”

[9] = tested on: caterpillars of the diamondback moth (Plutella xylostella); experiment: Plutella test (leaf dip); format: in vivo
Method: as §3, with “Plutella” for “Heliothis armigera”, “Cabbages” for “Soya bean”, “(Brassica oleracea)” for “(Glycine max.)”, “diamondback moth (Plutella xylostella)” for “cotton bollworm (Heliothis armigera)”

[10] = tested on: green peach aphid (Myzus persicae); experiment: Myzus persicae test; systemic treatment; format: in vivo; settings: for Kill rate after 6d in %: 20 ppm, systemic treatment
Method: Myzus persicae Test; Systemic Treatment Solvent: 7 parts by weight of dimethylformamide Emulsifier: 2 parts by weight of alkylaryl polyglycol ether To produce a suitable preparation of active compound, 1 part by weight of active compound is mixed with the stated amounts of solvent and emulsifier and the concentrate is diluted with water to the desired concentration. The active compound preparation is mixed with water. The stated concentration refers to the amount of active compound per volume unit of water (mg/l=ppm). The treated water is filled into vessels with a pea plant (Pisum sativum) which is then infected with the green peach aphid (Myzus persicae). After the desired period of time, the kill in % is determined. 100% means that all aphids have been killed; 0% means that none of the aphids have been killed.

[11] = tested on: green peach aphid (Myzus persicae); experiment: Myzus test; oral; format: in vivo
Method: Myzus Test; Oral Solvent: 80 parts by weight of acetone To produce a suitable preparation of active compound, 1 part by weight of active compound is mixed with the stated amounts of solvent and the concentrate is diluted with water to the desired concentration. Vessels are populated with all stages of the green peach aphid (Myzus persicae) which are treated by sucking the active compound preparation of the desired concentration. After the desired period of time, the activity in % is determined. 100% means that all aphids have been killed; 0% means that none of the aphids have been killed.

[12] = tested on: Spodoptera exigua, resistant strain; experiment: Spodoptera exigua test; resistant strain; format: in vivo
Method: Spodoptera exigua Test; Resistant Strain
Solvent: 7 parts by weight of dimethylformamide
Emulsifier: 2 parts by weight of alkylaryl polyglycol ether
To produce a suitable preparation of active compound, 1 part by weight of active compound is mixed with the stated amounts of solvent and emulsifier and the concentrate is diluted with emulsifier-containing water to the desired concentration.
Cabbage leaves (Brassica oleracea) are treated by being dipped into the active compound preparation of the desired concentration and populated with caterpillars of the army worm (Spodoptera exigua, resistant strain) while the leaves are still moist.
After the desired period of time, the kill in % is determined. 100% means that all caterpillars have been killed; 0% means that none of the caterpillars have been killed.

| Compound | logP [1] | activity in the Myzus persicae test (in words) (Myzus persicae) | Kill rate after 6-7d in % (Myzus persicae) | activity in the Heliothis virescens test (in words) (Heliothis virescens) | Kill rate after 6-7d in % (Heliothis virescens) | activity in the Spodoptera frugiperda test, spray treatment (in words) [2] | Kill rate after 7d in % [2] | activity in the Phaedon test (in words) [4] | Kill rate after 7d in % [4] | Kill rate after 14d in % [5] | activity in the Heliothis armigera test (in words) [6] | Kill rate after 7d in % [6] | activity in the Myzus test, spray treatment (in words) [7] | Kill rate after 5d in % [7] | activity in the Spodoptera exigua test (in words) [8] | activity in the Plutella test (in words) [9] | activity in the Myzus persicae test, systemic treatment (in words) [10] | Kill rate after 6d in % [10] | also measured |
| --- | --- | --- | --- | --- | --- | --- | --- | --- | --- | --- | --- | --- | --- | --- | --- | --- | --- | --- | --- |
| Cc1cccc(C2=NOCCO2)c1NC(=O)c1cc(Cl)nn1-c1ncccc1Cl [Example I-1-7] | 2.54 | good activity | 100% | good activity | 100% | good activity | 100% | – | – | – | – | – | – | – | – | – | – | – | – |
| Cc1cc(Cl)cc(C2=NOCCO2)c1NC(=O)c1cc(Cl)nn1-c1ncccc1Cl [Example I-1-9] | 3.08 | good activity | 100% | good activity | 100% | good activity | 100% | good activity | 100% | 95% | good activity | 80% | – | – | – | – | – | – | activity in the Diabrotica undecimpunctata test (in words) [3]: good activity; Kill rate after 2-5d in % ([3]; 300 ppm, 2-5 d, eggs): 100%; activity in the Spodoptera frugiperda test, watering (in words) [5]: good activity |
| Cc1cccc(C2=NOCCN2)c1NC(=O)c1cc(C(F)(F)F)nn1-c1ncccc1Cl [Example I-1-16] | 1.98 | – | – | – | – | good activity | 100% | good activity | 100% | – | good activity | 100% | good activity | 100% | good activity | good activity | good activity | 100% | Kill rate after 7d in % ([8]; 20 ppm): 100%; Kill rate after 7d in % ([9]; 100 ppm): 100%; activity in the Myzus test, oral (in words) [11]: good activity; Kill rate after 5d in % ([11]; 100 ppm, 5 d, oral): 100% |
| Cc1cc(Cl)cc(C2=NOCCN2)c1NC(=O)c1cc(C(F)(F)F)nn1-c1ncccc1Cl [Example I-1-18] | 2.70 | – | – | – | – | good activity | 100% | good activity | 100% | 95% | good activity | 100% | good activity | 100% | good activity | good activity | good activity | 95% | Kill rate after 7d in % ([8]; 100 ppm): 100%; activity in the Spodoptera exigua test, resistant strain (in words) [12]: good activity; Kill rate after 7d in % ([12]; 100 ppm, 7 d, resistant strain): 100%; Kill rate after 7d in % ([9]; 20 ppm): 100% |
